Source: patent US20200237766A1, “PKM2 ACTIVATORS IN COMBINATION WITH REACTIVE OXYGEN SPECIES FOR TREATMENT OF CANCER” (TOLERO PHARMACEUTICALS, INC., priority 2017, published 2020)
Like-named read-outs stand apart in the source and are kept apart here.

Target: PKM2 (Homo sapiens, UniProt P14618)
Experiment: PKM2 activation biochemical assay (AC50 / max. response vs fructose 1,6-bisphosphate)
Settings: for Max. Resp. (%): % maximum response in a biochemical assay as compared with Fructose 1,6-bisphosphate
[1] = biochemical assay, read-out: PKM2 AC50

Chain of PKM2 (P14618 whole entry): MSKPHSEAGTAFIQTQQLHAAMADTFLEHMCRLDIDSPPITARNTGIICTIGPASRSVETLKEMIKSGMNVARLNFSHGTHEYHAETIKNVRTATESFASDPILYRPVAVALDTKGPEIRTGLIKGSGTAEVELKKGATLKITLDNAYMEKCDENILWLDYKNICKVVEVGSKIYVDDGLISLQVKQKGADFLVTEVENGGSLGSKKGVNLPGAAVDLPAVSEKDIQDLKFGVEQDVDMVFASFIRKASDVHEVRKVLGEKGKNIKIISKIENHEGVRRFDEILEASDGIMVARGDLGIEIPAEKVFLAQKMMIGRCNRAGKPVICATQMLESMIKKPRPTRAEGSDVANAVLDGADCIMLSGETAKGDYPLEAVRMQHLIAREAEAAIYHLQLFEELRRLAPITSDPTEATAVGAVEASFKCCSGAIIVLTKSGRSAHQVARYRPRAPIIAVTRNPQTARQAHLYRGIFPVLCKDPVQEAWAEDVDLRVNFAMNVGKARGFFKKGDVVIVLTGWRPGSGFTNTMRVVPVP

| SMILES | Max. Resp. (%) | AC50 [1] [nM] | AC50 [nM] |
| --- | --- | --- | --- |
| O=C(c1cc(C(F)(F)F)n[nH]1)N(CCN1CCCC1)Cc1cccc2[nH]ccc12 [Compound 164] | 100% | 113 | – |
| O=C(c1cc(C(F)(F)F)n[nH]1)N(CCN1CCCC1)Cc1ccc(Cl)cc1Cl [Compound 165] | 50% | 45000 | – |
| CCN(CC)CCN(Cc1cccc(Cl)c1Cl)C(=O)c1cc(C(F)(F)F)n[nH]1 [Compound 167] | 100% | 186 | – |
| CCN(CC)CCN(Cc1cc(Cl)ccc1Cl)C(=O)c1cc(C(F)(F)F)n[nH]1 [Compound 168] | 100% | 97 | – |
| CCN(CC)CCN(Cc1c(Cl)cccc1Cl)C(=O)c1cc(C(F)(F)F)n[nH]1 [Compound 169] | 100% | 66 | – |
| CCN(CC)CCN(Cc1ccc(F)cc1Cl)C(=O)c1cc(C(F)(F)F)n[nH]1 [Compound 170] | 100% | – | 505 |
| CCN(CC)CCN(Cc1cc(F)ccc1Cl)C(=O)c1cc(C(F)(F)F)n[nH]1 [Compound 171] | 100% | – | 88 |
| CCN(CC)CCN(Cc1c(F)cccc1Cl)C(=O)c1cc(C(F)(F)F)n[nH]1 [Compound 172] | 100% | 94 | – |
| O=C(c1cc(C(F)(F)F)n[nH]1)N(CCN1CCCCC1)Cc1ccccc1Cl [Compound 173] | 100% | 66 | – |
| O=C(c1cc(C(F)(F)F)n[nH]1)N(CCN1CCOCC1)Cc1ccccc1Cl [Compound 174] | 100% | 1490 | – |
| CCN(CC)CCN(Cc1ccccc1Cl)C(=O)c1cc(Br)n[nH]1 [Compound 175] | 100% | – | 305 |
| O=C(c1cc(C(F)(F)F)n[nH]1)N(CCN1CCCC1)Cc1c(F)cccc1Cl [Compound 177] | 100% | 180 | – |
| O=C(c1cc(C(F)(F)F)n[nH]1)N(CCN1CCCC1)Cc1c(Cl)cccc1Cl [Compound 178] | 100% | 126 | – |
| O=C(c1cc(C(F)(F)F)n[nH]1)N(CCN1CCCCC1)Cc1c(F)cccc1Cl [Compound 179] | 100% | 133 | – |
| O=C(c1cc(C(F)(F)F)n[nH]1)N(CCN1CCCCC1)Cc1c(Cl)cccc1Cl [Compound 180] | 100% | 154 | – |
| CC(CN(Cc1ccccc1Cl)C(=O)c1cc(C(F)(F)F)n[nH]1)N1CCCC1 (centres unmarked) [Compound 181] | 100% | 430 | – |
| CCN(CC)CCN(Cc1cccc(F)c1Cl)C(=O)c1cc(C(F)(F)F)n[nH]1 [Compound 182] | 100% | – | 109 |
| CCN(CC)CCN(Cc1cc(N)ccc1Cl)C(=O)c1cc(C(F)(F)F)n[nH]1 [Compound 183] | 100% | 185 | – |
| CCN(CC)CCN(Cc1ccccc1C(C)C)C(=O)c1cc(C(F)(F)F)n[nH]1 [Compound 184] | 85% | 1950 | – |
| CCN(CC)CCCN(Cc1ccccc1Cl)C(=O)c1cc(C(F)(F)F)n[nH]1 [Compound 185] | 53% | 1750 | – |
| CN(C)CCCN(Cc1ccccc1Cl)C(=O)c1cc(C(F)(F)F)n[nH]1 [Compound 186] | 100% | 375 | – |
| CN(C)CCN(Cc1ccccc1Cl)C(=O)c1cc(C(F)(F)F)n[nH]1 [Compound 187] | 100% | 295 | – |

| SMILES | Max. Resp. (%) | AC50 [1] [nM] | AC50 [nM] |
| --- | --- | --- | --- |
| CC1CC(C)CN(CCN(Cc2ccccc2Cl)C(=O)c2cc(C(F)(F)F)n[nH]2)C1 (centres unmarked) [Compound 188] | 60% | 46 | – |
| O=C(c1cc(C(F)(F)F)n[nH]1)N(CCN1CCCCCC1)Cc1ccccc1Cl [Compound 189] | 100% | 24 | – |
| CC1CCN(CCN(Cc2ccccc2Cl)C(=O)c2cc(C(F)(F)F)n[nH]2)CC1 [Compound 190] | 100% | 42 | – |
| CC1CCCN(CCN(Cc2ccccc2Cl)C(=O)c2cc(C(F)(F)F)n[nH]2)C1 (centres unmarked) [Compound 191] | 100% | 29 | – |
| CC1CCCCN1CCN(Cc1ccccc1Cl)C(=O)c1cc(C(F)(F)F)n[nH]1 (centres unmarked) [Compound 192] | 100% | 104 | – |
| CCN(CC)CCN(Cc1ccccc1Cl)C(=O)c1[nH]nc(Cl)c1F [Compound 193] | 58% | 14000 | – |
| O=C(c1cc(C(F)(F)F)n[nH]1)N(CCN1CCCCCC1)Cc1ccc(O)cc1Cl [Compound 194] | 100% | 43 | – |
| O=C(c1cc(C(F)(F)F)n[nH]1)N(CCN1CCCCCC1)Cc1ccc(O)cc1F [Compound 195] | 100% | – | 95 |
| Nc1ccc(Cl)c(CN(CCN2CCCCCC2)C(=O)c2cc(C(F)(F)F)n[nH]2)c1 [Compound 196] | 100% | 99 | – |
| O=C(c1cc(C(F)(F)F)n[nH]1)N(CCN1CCCCCC1)Cc1ccccc1F [Compound 197] | 100% | 63 | – |
| O=C(c1cc(C(F)(F)F)n[nH]1)N(CCN1CCCCCC1)Cc1c(F)cccc1F [Compound 198] | 100% | 130 | – |
| CCC1CCN(CCN(Cc2ccccc2Cl)C(=O)c2cc(C(F)(F)F)n[nH]2)CC1 [Compound 199] | 100/100% | 100 | – |
| CC1CCCN(CCN(Cc2cc(N)ccc2Cl)C(=O)c2cc(C(F)(F)F)n[nH]2)C1 (centres unmarked) [Compound 200] | 100% | 130 | – |
| CC1CCCN(CCN(Cc2ccccc2F)C(=O)c2cc(C(F)(F)F)n[nH]2)C1 (centres unmarked) [Compound 201] | 100% | 215 | – |
| CC1CCCCN1CCN(Cc1cc(N)ccc1Cl)C(=O)c1cc(C(F)(F)F)n[nH]1 (centres unmarked) [Compound 202] | 100% | 395 | – |
| CC1CCCCN1CCN(Cc1ccccc1F)C(=O)c1cc(C(F)(F)F)n[nH]1 (centres unmarked) [Compound 203] | 100% | 550 | – |
| CCN(CCN(Cc1ccccc1Cl)C(=O)c1cc(C(F)(F)F)n[nH]1)C(C)C [Compound 204] | 53% | 880 | – |
| O=C(c1cc(C(F)(F)F)n[nH]1)N(CCN1CCC(F)(F)CC1)Cc1ccccc1Cl [Compound 205] | 100% | 2050 | – |
| O=C(c1cc(C(F)(F)F)n[nH]1)N(CCN1CCCC1)Cc1cccc2[nH]cc(F)c12 [Compound 206] | 100% | 136 | – |
| Nc1ccc(CN(CCN2CCCCCC2)C(=O)c2cc(C(F)(F)F)n[nH]2)c(Cl)c1 [Compound 207] | 75% | 170 | – |
| O=C(c1cc(C(F)(F)F)n[nH]1)N(CCN1CCCCCC1)Cc1cccc2nc[nH]c12 [Compound 208] | 100% | 125 | – |
| CCCN(CC)CCN(Cc1ccccc1Cl)C(=O)c1cc(C(F)(F)F)n[nH]1 [Compound 209] | 100% | 52 | – |

| SMILES | Max. Resp. (%) | AC50 [1] [nM] | AC50 [nM] |
| --- | --- | --- | --- |
| O=C(c1cc(C(F)(F)F)n[nH]1)N(CCN1CCCCCC1)Cc1cccc([N+](=O)[O-])c1Cl [Compound 210] | 100% | – | 133 |
| O=C(c1cc(C(F)(F)F)n[nH]1)N(CCN1CCCCCC1)Cc1c(Cl)cccc1[N+](=O)[O-] [Compound 211] | 100% | 123 | – |
| CC1CCCC(C)N1CCN(Cc1ccccc1Cl)C(=O)c1cc(C(F)(F)F)n[nH]1 (centres unmarked) [Compound 212] | 53% | 5810 | – |
| Nc1cccc(CN(CCN2CCCCCC2)C(=O)c2cc(C(F)(F)F)n[nH]2)c1Cl [Compound 213] | 100% | – | 60 |
| Nc1ccc(F)c(CN(CCN2CCCCCC2)C(=O)c2cc(C(F)(F)F)n[nH]2)c1 [Compound 214] | 100% | 153 | – |
| COc1ccc(N)cc1CN(CCN1CCCCCC1)C(=O)c1cc(C(F)(F)F)n[nH]1 [Compound 215] | 100% | 1190 | – |
| Nc1cccc(CN(CCN2CCCCCC2)C(=O)c2cc(C(F)(F)F)n[nH]2)c1F [Compound 216] | 100% | 117 | – |
| COc1c(N)cccc1CN(CCN1CCCCCC1)C(=O)c1cc(C(F)(F)F)n[nH]1 [Compound 217] | 100% | 230 | – |
| Nc1cccc(Cl)c1CN(CCN1CCCCCC1)C(=O)c1cc(C(F)(F)F)n[nH]1 [Compound 218] | 100% | 41 | – |
| O=C(c1cc(C(F)(F)F)n[nH]1)N(CCN1CCC(O)CC1)Cc1ccccc1Cl [Compound 219] | 100% | 1300 | – |
| O=C(c1cc(C(F)(F)F)n[nH]1)N(CCN1CCCC(O)C1)Cc1ccccc1Cl (centres unmarked) [Compound 220] | 100% | 465 | – |
| CC(CN(Cc1c(N)cccc1Cl)C(=O)c1cc(C(F)(F)F)n[nH]1)N1CCCC1 (centres unmarked) [Compound 221] | 60% | 223 | – |
| Nc1cccc(Cl)c1CN(CCN1CCCC1)C(=O)c1cc(C(F)(F)F)n[nH]1 [Compound 222] | 100% | – | 56 |
| CCCN(CC)CCN(Cc1c(N)cccc1Cl)C(=O)c1cc(C(F)(F)F)n[nH]1 [Compound 223] | 100% | – | 32 |
| Nc1cccc(Cl)c1CN(CCN1CCS(=O)(=O)CC1)C(=O)c1cc(C(F)(F)F)n[nH]1 [Compound 224] | 100% | 410 | – |
| Nc1cccc(Cl)c1CN(CCN1CCCC(O)C1)C(=O)c1cc(C(F)(F)F)n[nH]1 (centres unmarked) [Compound 225] | 100% | 102 | – |
| NC1CC(N(Cc2ccccc2Cl)C(=O)c2cc(C(F)(F)F)n[nH]2)C1 (centres unmarked) [Compound 226] | 80% | 12000 | – |
| O=C(c1cc(C(F)(F)F)n[nH]1)N(Cc1ccccc1Cl)CC1CCN1 (centres unmarked) [Compound 227] | 100% | 215 | – |
| CS(=O)(=O)N1CCCC(CCN(Cc2ccccc2Cl)C(=O)c2cc(C(F)(F)F)n[nH]2)C1 (centres unmarked) [Compound 228] | 100% | 2000 | – |
| O=C(c1cc(C(F)(F)F)n[nH]1)N(CCc1ccc(O)cc1)Cc1ccccc1Cl [Compound 230] | 100% | 12000 | – |
